Data on 5 compounds can be found in paper PMC8508980, “Design, Synthesis and Anticancer Profile of New 4-(1H-benzo[d]imidazol-1-yl)pyrimidin-2-amine-Linked Sulfonamide Derivatives with V600EBRAF Inhibitory Effect” (International Journal of Molecular Sciences, 2021).

The test system of one assay is A375 cells. In words: Antiproliferative MTT assay. In kind it is cell-based. The conditions noted are these: Homo sapiens, A-375, 48 h, mean ± S.D. of two experiments. On the procedure: (§1) The effect of final target compounds over A375 and SK-MEL-5 was performed using reported procedures (detailed procedure is located in the Supplementary Information page 51s). […]
(§2) Evaluation of the Antiproliferative Activity Against A375 and SK-MEL-5
(§3) A375 and SK-MEL-5 cells were purchased from American Type Culture Collection (ATCC, Ro ckv ille, MD, USA) and maintained in Dulbecco’s modified eagle medium (DMEM, Welgene, Daegu, Republic of Korea) supplemented with 10% fetal bovine serum (FBS, Welgene, Daegu, Republic of Korea) and 1% penicillin/streptomycin (Welgene, Daegu, Republic of Korea) in a hu midified atmo sphere with 5% CO2 at 37 °C. Both cells were taken from culture substrate with 0.05% trypsin-0.02% EDTA and plated at a density of 5 × 10^3 cells/well in 96 well plates and then incubated at 37 °C fo r 24 h in a hu midified atmo sphere with 5% CO2 prior to treatment with various concentrations (3-fold serial dilution, 12 points) of the tested compounds. The cells were incubated for 48 h after treatment with the test compounds. The cell viability was assessed by the conventional 3-(4,5-dimethylthiazol-2-yl)-2,5-diphenyltetrazolium bromide (MTT) reduction assay. MTT assays were carried out with CellTiter 96® (Promega) according to the manufacturer’s instructions. The absorbance at 590 nm was recorded using EnVision 2103 (Perkin Elmer; Bo ston , MA, USA). The IC50 values were calculated using GraphPad Prism 4.0

Another assay concerns SK-MEL-5 cells. In words: Antiproliferative MTT assay. The class given is cell-based. Particulars: Homo sapiens, 48 h, mean ± S.D. of two experiments. On the procedure: as §1, §2, §3
The next assay relates to HCC-2998. In words: NCI 60 cell line screen. Particulars: Homo sapiens; HCC-2998, Colon Cancer; read-out: Percent growth. In kind it is cell-based. The gist of the method: (§4)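 Read-out was SRB staining of TCA-fixed cells at 515 nm, with growth computed against time-zero (Tz) and untreated control plates; TGI was taken where Ti = Tz. Drugs were tested at five concentrations up to 10 µM for 48 h at 37 °C, added 24 h after plating in RPMI 1640/5% FBS.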

Another assay relates to SK-MEL-28. In words: NCI 60 cell line screen. The conditions noted are these: Homo sapiens; SK-MEL-28, Melanoma; read-out: Percent growth. In kind it is cell-based. The gist of the method: as §4
The next assay has as its system A549/ATCC. In words: NCI 60 cell line screen. The class given is cell-based. Particulars: Homo sapiens, Non-Small Cell Lung Cancer, read-out: Percent growth. In outline:
as §4

A further assay relates to MDA-MB-435. In words: NCI 60 cell line screen. The class given is cell-based. Particulars: Homo sapiens; MDA-MB-435, Melanoma; read-out: Percent growth. In outline:
as §4

A further assay deals with 786-0. In words: NCI 60 cell line screen. The class given is cell-based. Particulars: Homo sapiens; 786-0, Renal Cancer; read-out: Percent growth. The gist of the method:
as §4

The subject of a further assay is LOX IMVI. In words: NCI 60 cell line screen. The conditions noted are these: Homo sapiens, Melanoma, read-out: Percent growth. The class given is cell-based. In outline:
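SRB read-out (515 nm) after 48 h drug exposure, 37 °C, RPMI 1640/5% FBS; five-point dilution series, top conc. 10 µM. Percent growth from Tz, control and treated absorbances; GI50 and TGI derived.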

The test system of another assay is COLO 205. In words: NCI 60 cell line screen. The class given is cell-based. Particulars: Homo sapiens; COLO 205, Colon Cancer; read-out: Percent growth. In outline:
as §4

The test system of assay [1] is ovarian cancer cell lines. In words: NCI 60 screen, sub-panel mean. The class given is cell-based, human. Particulars: NCI-60, ovarian cancer sub-panel. On the procedure:
(§5) Anticancer profiling over a panel of 60 cancer cell lines was carried out at the National Cancer Institute (NCI), Bethesda, Maryland, USA, https://dtp.cancer.gov/discovery_development/nci-60/methodology.htm (Last visit 22 September 2021), using the standard procedure (detailed procedure is located in the Supplementary Information page 50 s).
(§6) NCI standard procedure for 60 cell lines assay
(§7) The human tumor cell lines of the cancer screening panel are grown in RPMI 1640 mediu m containing 5% fetal bovine serum and 2 mM L-glutamine. For a typical screening experiment, cells are inoculated into 96 well microtiter plates in 100 μL at plating densities ranging from 5,000 to 40,000 cells/well depending on the doubling time of individual cell lines. After cell inoculation, the microtiter plates are incubated at 37° C, 5 % CO2, 95 % air and 100 % relative humidity for 24 h prior to addition of experimental drugs.
(§8) After 24 h, two plates of each cell line are fixed in situ with TCA, to represent a measurement of the cell population for each cell line at the time of drug addition (Tz). Experimental drugs are solubilized in dimethyl sulfoxide at 400-fold the desired final maximum test concentration (10 µM) and stored frozen prior to use. At the time of drug addition, an aliquot of frozen concentrate is thawed and diluted to twice the desired final maximum test concentration with co mp lete medium containing 50 μg/ml gentamicin. Additional four, 10-fold or ½ log serial dilutions are made to provide a total of five drug concentrations plus control. Aliquots of 100 μl of these different drug dilutions are added to the appropriate microtiter wells already containing 100 μl of medium, resulting in the required final drug concentrations.
(§9) Following drug addition, the plates are incubated for an additional 48 h at 37°C, 5 % CO2, 95 % air, and 100 % relative humidity. For adherent cells, the assay is terminated by the addition of cold TCA. Cells are fixed in situ by the gentle addition of 50 μl of cold 50 % (w/v) TCA (final concentration, 10 % TCA) and incubated for 60 minutes at 4°C. The supernatant is discarded, and the plates are washed five times with tap water and air dried. Sulforhodamine B (SRB) solution (100 μl) at 0.4 % (w/v) in 1 % acetic acid is added to each well, and plates are incubated for 10 minutes at room temperature. After staining, unbound dye is removed by washing five times with 1 % acetic acid and the plates are air dried. Bound stain is subsequently solubilized with 10 mM trizma base, and the absorbance is read on an automated plate reader at a wavelength of 515 nm. For suspension cells, the methodology is the same except that the assay is terminated by fixing settled cells at the bottom of the wells by g ently adding 50 μl of 80 % TCA (final concentration, 16 % TCA). Using the seven absorbance measurements [time zero, (Tz), control growth, (C), and test growth in the presence of drug at the five concentration levels (Ti)], the percentage growth is calculated at each of the drug concentrations levels. Percentage growth inhibition is calculated as:
(§10) [(Ti-Tz)/(C-Tz)] x 100 for concentrations for which Ti>/=Tz
(§11) [(Ti-Tz)/Tz] x 100 for concentrations for which Ti<Tz.
(§12) Three dose response parameters are calculated for each experimental agent. Growth inhibition of […]
(§13) resulting in a 50% reduction in the net protein increase (as measured by SRB staining) in control cells during the drug incubation. The drug concentration resulting in total growth inhibition […]
(§14) (TGI) is calculated from Ti = Tz.

Another assay has as its system breast cancer cell lines. In words: NCI 60 screen, sub-panel mean. Particulars: NCI-60, breast cancer sub-panel. In kind it is cell-based, human. The method, then: as §5, §6, §7, §8, §9, §10, §11, §12, §13, §14
The next assay deals with renal cancer cell lines. In words: NCI 60 screen, sub-panel mean. In kind it is cell-based, human. The conditions noted are these: NCI-60, renal cancer sub-panel. On the procedure: as §5, §6, §7, §8, §9, §10, §11, §12, §13, §14
In another assay the test system is leukemia cell lines. In words: NCI 60 screen, sub-panel mean. The class given is cell-based, human. Particulars: NCI-60, leukemia sub-panel. On the procedure:
as §5, §6, §7, §8, §9, §10, §11, §12, §13, §14

The test system of assay [2] is non-small cell lung cancer cell lines. In words: NCI 60 screen, sub-panel mean. The class given is cell-based, human. The conditions noted are these: NCI-60, non-small cell lung cancer sub-panel. The method, then: as §5, §6, §7, §8, §9, §10, §11, §12, §13, §14
Assay [3] has as its system prostate cancer cell lines. In words: NCI 60 screen, sub-panel mean. The conditions noted are these: NCI-60, prostate cancer sub-panel. In kind it is cell-based, human. On the procedure: as §5, §6, §7, §8, §9, §10, §11, §12, §13, §14

For orientation: IC50 means the concentration that inhibits the measured activity by half. Lower therefore signals inhibition by little substance. Consider `O=S(=O)(NCCNc1nccc(-n2cnc3ccccc32)n1)c1ccc(C(F)(F)F)cc1` [12e, N-(2-((4-(1H-benzo [d]imidazol-1-yl)pyrimidin-2-yl)amino)ethyl)-4-(trifluoromethyl)benzenesulfonamide], for which the half-inhibitory concentration (IC50) was determined as 2.89 ± 0.14 µM in the assay on A375 cells and 6.54 ± 0.18 µM with SK-MEL-5 cells. Further, the activity at 10 µM is 80.5% in the assay with HCC-2998; 77.2% in the assay with SK-MEL-28; 55.4% in the assay with A549/ATCC; 64.4% with MDA-MB-435; 69.7% in the assay with 786-0; 57.4% in the assay on LOX IMVI. For the same compound, the activity at 10 µM in the assay with COLO 205 was 64.9%. The mean percent inhibition in assay [1] is reported as 40%; with breast cancer cell lines, “more than 60%”; in the assay on renal cancer cell lines, 45%; in the assay with leukemia cell lines it was 60%; in assay [2] it was 50%; in assay [3], 40%.
For `Cc1ccc(S(=O)(=O)NCCNc2nccc(-n3cnc4ccccc43)n2)cc1` [12g, N-(2-((4-(1H-benzo [d]imidazol-1-yl)pyrimidin-2-yl)amino)ethyl)-4-methyl benzenesulfonamide], the IC50 was determined as 7.22 ± 0.23 µM in the assay on A375 cells and 8.25 ± 0.12 µM in the assay with SK-MEL-5 cells. In addition, the activity at 10 µM was 93.1% with HCC-2998; 94.4% in the assay with SK-MEL-28; 82.4% in the assay with A549/ATCC; 84.1% in the assay with MDA-MB-435; 85.4% with 786-0; 75.2% in the assay on LOX IMVI. For the same compound, the activity at 10 µM in the assay with COLO 205 came to 86.8%. Also, the mean percent inhibition entry in assay [1] was “around 25%”; with breast cancer cell lines it was “around 40%”; with renal cancer cell lines, “around 30%”; in assay [2], 30%; in [3] it was “around 20%”.
For `O=S(=O)(NCCCNc1nccc(-n2cnc3ccccc32)n1)c1ccc(F)cc1` [12i, N-(3-((4-(1H-benzo [d]imidazol-1-yl)pyrimidin-2-yl)amino)propyl)-4-fluorobenzenesulfonamide], the IC50 came to 1.95 ± 0.13 µM with A375 cells and 2.36 ± 0.21 µM with SK-MEL-5 cells. Besides, the activity at 10 µM came to 102% in the assay on HCC-2998; 97.9% in the assay with SK-MEL-28; 88.8% in the assay with A549/ATCC; 64.6% in the assay with MDA-MB-435; 97.7% in the assay with 786-0; 74% in the assay with LOX IMVI. In addition, the activity at 10 µM in the assay with COLO 205 came to 86%. For the same compound, the mean percent inhibition result in assay [1] is “around 25%”; with breast cancer cell lines it was “around 40%”; with leukemia cell lines, 50%; in [3], “around 20%”.
Consider `O=S(=O)(NCCCNc1nccc(-n2cnc3ccccc32)n1)c1ccc(C(F)(F)F)cc1` [12l, N-(3-((4-(1H-benzo [d]imidazol-1-yl)pyrimidin-2-yl)amino)propyl)-4-(trifluoromethyl) benzenesulfonamide], for which the IC50 with A375 cells amounted to 1.85 ± 0.11 µM; in the assay on SK-MEL-5 cells, 2.02 ± 0.09 µM. In addition, the activity at 10 µM in the assay with HCC-2998 was determined as 84.8%; with SK-MEL-28, 103%; with A549/ATCC, 79%; in the assay on MDA-MB-435 it was 72.1%; in the assay with 786-0 it was 77.2%; in the assay on LOX IMVI, 72.3%. In addition, in the assay with COLO 205, the activity at 10 µM is 78.2%. Besides, the mean percent inhibition entry in assay [1] was “around 25%”; with breast cancer cell lines it was “around 40%”; in the assay on renal cancer cell lines, “around 30%”; in the assay with leukemia cell lines it was 46%; in [2], 30%; in assay [3] it was “around 20%”.
With `O=S(=O)(NCCCNc1nccc(-n2cnc3ccccc32)n1)c1cccc2ccccc12` [12n, N-(3-((4-(1H-benzo [d]imidazol-1-yl)pyrimidin-2-yl)amino)propyl)naphthalene-1-sulfonamide], the IC50 was 16.9 ± 0.81 µM in the assay with A375 cells and 17.9 ± 0.62 µM in the assay with SK-MEL-5 cells. Besides, the activity at 10 µM in the assay with HCC-2998 is 112%; in the assay with SK-MEL-28, 103%; in the assay with A549/ATCC, 86.3%; in the assay on MDA-MB-435, 93.4%; in the assay on 786-0, 91.2%; in the assay on LOX IMVI it was 85.6%. Besides, in the assay with COLO 205, the activity at 10 µM is 96.4%. Also, the mean percent inhibition entry in assay [3] is listed as “around 20%”.
